Data taken from patent US9199975B2, “Biaryl imidazole derivatives for regulating CYP17” (Asana Biosciences, LLC, priority 2011, dated 2015).
pIC50: −log10 of the molar value.

Biological target: T1, human CYP17 (Homo sapiens, UniProt P05093)
T1 sequence (P05093 1-508): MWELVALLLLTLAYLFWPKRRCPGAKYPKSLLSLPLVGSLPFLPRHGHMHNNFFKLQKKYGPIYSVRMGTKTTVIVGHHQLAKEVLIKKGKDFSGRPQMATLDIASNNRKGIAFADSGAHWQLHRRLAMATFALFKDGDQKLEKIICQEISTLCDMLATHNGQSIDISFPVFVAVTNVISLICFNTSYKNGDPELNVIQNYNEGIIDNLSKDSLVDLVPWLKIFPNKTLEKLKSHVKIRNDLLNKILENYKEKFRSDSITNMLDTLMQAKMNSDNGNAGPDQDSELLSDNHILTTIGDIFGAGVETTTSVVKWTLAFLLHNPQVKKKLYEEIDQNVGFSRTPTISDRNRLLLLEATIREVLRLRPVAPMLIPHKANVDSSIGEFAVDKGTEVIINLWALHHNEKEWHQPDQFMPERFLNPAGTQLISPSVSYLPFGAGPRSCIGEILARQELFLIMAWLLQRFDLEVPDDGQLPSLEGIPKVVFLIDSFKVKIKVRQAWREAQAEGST
Assay: Cell-based human CYP17 inhibition assay, H295R adrenocortical carcinoma cells
Parameters: H295R Adrenocortical carcinoma cells [NCI-H295A, ATCC Number CRL-2128, American Type Culture Collection; host or cells: H295R adrenocortical carcinoma cells
Conditions: 16 hours at 37° C., read-out: CYP17 (human H295R adrenal cells)
Protocol: Cell-Based Human CYP17 Inhibition Assay
A. Materials • 1. H295R Adrenocortical Carcinoma Cells and Growth Media: The media for the H295R Adrenocortical carcinoma cells [NCI-H295A, ATCC Number CRL-2128, American Type Culture Collection, Manassas, Va., US] (500 mL) was a DMEM:F12 Mix 1:1 with 5% […] BD Nu Serum; 1% (5 mL) ITS+Premix [BD Biosciences] and 1% Penstrep. • 2. LNCap-CYP17 Cells and Growth Media: Full length hCYP17a1 gene (NCBI Reference Sequence: NM_000102.3) was cloned in pCDNA3.1(+) vector between HindIII and XhoI site. The pCDNA3.1(+) vector contains the Neomycin resistance gene and was used for selection of stable cell line. The hCYP17a1 containing pCDNA3.1(+) was transfected into LNCap cells to create the LNCap-CYP17 cell line. The media for the LNCaP-CYP17 cells was RPMI 1640, 10% FBS, 1% PenStrep, Geneticin 400 μg/mL.
The H295R cells or LNCaP-hCYP17 cells were subcultured and 30,000 cells per well were seeded in a poly-d lysine plate and incubated overnight at 37° C. The next day the media was removed and 200 µL of fresh media with ^3H3-17α-hydroxy-pregnenolone (1:1000) was added. 50 μL of serially diluted compounds from a 5× plate (5 times the final desired concentration) was added. The working concentration range for active, new compounds started from a high concentration of […] with 3-fold serial dilutions generating up to 10 concentrations. The serial dilution in the 100× plate (in DMSO) and the stamping of a 5× plate (in media) from the 100× plate were carried out using a TECAN liquid handling device.
The plates were incubated overnight (16 hours) at 37° C. After 16 hours, the media was removed (approximately 220 μL) and an equal amount of chloroform was added, mixed and incubated for 30 minutes at 4 degrees. The plate was centrifuged at 4000 rpm for 15 minutes at 4° C., following which the top aqueous layer was carefully removed and added into a new deep well plate. An equal volume of activated 5% charcoal was added, mixed and incubated for 30 minutes at 4° C. The plate was then centrifuged at 4000 rpm for 15 minutes at 4° C. and the top layer carefully separated, avoiding any charcoal contamination, and placed in a white, clear bottom plate (plate cat #3610, Corning Life Sciences). An equal volume of Microscint™ 40 was added and mixed well. Following the incubation for 30 minutes, readings for the radiotracer were taken using a Microbeta® trilux.

Compared with `CCC(c1ccc(-c2ccc(C#N)cc2)cn1)n1ccnc1` (centres unmarked) [Example 17, 4-[6-(1-Imidazol-1-yl-propyl)-pyridin-3-yl]-benzonitrile], `CCC(c1ccc(-c2ccc(O)cc2)cn1)n1ccnc1` (centres unmarked) [Example 50, 4-[6-(1-Imidazol-1-yl-propyl)-pyridin-3-yl]-phenol] is higher in pIC50: 6.70 to 7.30 for the first, > 7.30 for the second. The second is the more potent here.

First: CCC(c1cccc(-c2ccc(OC)cc2)n1)n1ccnc1 (centres unmarked) [Example 38, 2-(1-Imidazol-1-yl-propyl)-6-(4-methoxy-phenyl) pyridine]
Second: COc1ccc(-c2cccnc2C(C)n2ccnc2)cc1 (centres unmarked) [Example 66, 2-(1-(1H-imidazol-1-yl)ethyl)-3-(4-methoxyphenyl)-pyridine]
The pIC50 of the first is lower: 6.70 to 7.30 for the first, > 7.30 for the second.

Compared with `CC(c1cnc(-c2ccc(C#N)cc2)s1)n1ccnc1` (centres unmarked) [Example 22, 4-(5-(1-(1H-imidazol-1-yl)ethyl)thiazol-2-yl)benzonitrile], `CC(c1cnc(-c2ccc(C(=O)O)cc2)s1)n1ccnc1` (centres unmarked) [Example 65, 4-[5-(1-Imidazol-1-yl-ethyl)-thiazol-2-yl]-benzoic acid] is lower in pIC50: 6.70 to 7.30 for the first, 5.00 to 6.70 for the second. The first is the more potent here.

First: CCC(c1cnc(-c2ccc(F)cc2F)s1)n1ccnc1 (centres unmarked) [Example 32, 2-(2,4-Difluoro-phenyl)-5-(1-imidazol-1-yl-propyl)-thiazole]
Second: CCC(c1cnc(-c2cccc(F)c2)s1)n1ccnc1 (centres unmarked) [Example 1, 5-(1-(1H-imidazol-1-yl)propyl)-2-(3-fluorophenyl)thiazole]
The pIC50 of the first is higher: > 7.30 for the first, 6.70 to 7.30 for the second.

`CC(C)(c1ccc(-c2ccc(O)cc2)cn1)n1ccnc1` [Example 52, 4-[6-(1-Imidazol-1-yl-1-methyl-ethyl)-pyridin-3-yl]-phenol] and `CC(c1ccc(-c2ccc(O)cc2)cn1)n1ccnc1` (centres unmarked) [Example 16, 4-(6-(1-(1H-imidazol-1-yl)ethyl)pyridin-3-yl)phenol] fall in the same range of pIC50: 6.70 to 7.30 for the first, 6.70 to 7.30 for the second.

`CC(=O)Nc1ccc(-c2ccc(C(C)n3ccnc3)nc2)cc1` (centres unmarked) [Example 64, N-{4-[6-(1-Imidazol-1-yl-ethyl)-pyridin-3-yl]-phenyl}-acetamide] and `CC(c1ccc(-c2ccc(N)cc2)cn1)n1ccnc1` (centres unmarked) [Example 14, 4-(6-(1-(1H-imidazol-1-yl)ethyl)pyridin-3-yl)aniline] fall in the same range of pIC50: 5.00 to 6.70 for the first, 5.00 to 6.70 for the second.

`CC(c1ccc(-c2ccc(=O)n(C)c2)s1)n1ccnc1` (centres unmarked) [Example 20, 5-(5-(1-(1H-imidazol-1-yl)ethyl)thiophen-2-yl)-1-methylpyridin-2(1H)-one] and `CCC(c1ccc(-c2ccc(O)cc2)s1)n1ccnc1` (centres unmarked) [Example 4, 4-(5-(1-(1H-imidazol-1-yl)propyl)thiophen-2-yl)phenol] cannot be ordered by pIC50: > 7.30 for the first, > 7.30 for the second.

Compared with `COc1ccc(-c2ccc(C(C)(C)n3ccnc3)s2)cc1` [Example 24, 1-(2-(5-(4-methoxyphenyl)-thiophen-2-yl)-propan-2-yl)-1H-imidazole], `CCC(c1ccc(-c2ccccc2OC)cn1)n1ccnc1` (centres unmarked) [Example 56, 2-(1-Imidazol-1-yl-propyl)-5-(2-methoxy-phenyl)-pyridine] is lower in pIC50: > 7.30 for the first, 6.70 to 7.30 for the second. The first is the more potent here.

`CCC(c1ccc(-c2cccc(O)c2)cn1)n1ccnc1` (centres unmarked) [Example 8, 3-(6-(1-(1H-imidazol-1-yl)propyl)pyridin-3-yl)phenol] and `CCC(c1ccc(-c2ccccc2F)cn1)n1ccnc1` (centres unmarked) [Example 48, 5-(2-Fluoro-phenyl)-2-(1-imidazol-1-yl-propyl)-pyridine] cannot be ordered by pIC50: > 7.30 for the first, > 7.30 for the second.

First: CCC(c1ccc(-c2ccc(CO)cc2)cn1)n1ccnc1 (centres unmarked) [Example 41, {4-[6-(1-Imidazol-1-yl-propyl)-pyridin-3-yl]-phenyl}-methanol]
Second: CCC(c1ccc(-c2ccc(F)cc2)cn1)n1ccnc1 (centres unmarked) [Example 29, 5-(4-Fluoro-phenyl)-2-(1-imidazol-1-yl-propyl)-pyridine]
The pIC50 of the first is lower: 6.70 to 7.30 for the first, > 7.30 for the second. The second is the more potent here.

First: CCC(c1cnc(-c2ccc(NC(=O)OC(C)(C)C)cc2)s1)n1ccnc1 (centres unmarked) [Example 31, {4-[5-(1-Imidazol-1-yl-propyl)-thiazol-2-yl]-phenyl}-carbamic acid tert-butyl ester]
Second: CCC(c1cnc(-c2ccc(=O)[nH]c2)s1)n1ccnc1 (centres unmarked) [Example 59, 5-[5-(1-Imidazol-1-yl-propyl)-thiazol-2-yl]-1H-pyridin-2-one]
The pIC50 of the first is higher: > 7.30 for the first, 5.00 to 6.70 for the second. The first is the more potent here.

Compared with `CC(c1ccc(-c2ccccc2F)cn1)n1ccnc1` (centres unmarked) [Example 40, 5-(2-Fluoro-phenyl)-2-(1-imidazol-1-yl-ethyl)-pyridine], `CC(c1ccc(-c2ccoc2)cn1)n1ccnc1` (centres unmarked) [Example 13, 2-(1-(1H-imidazol-1-yl)ethyl)-5-(furan-3-yl)pyridine] is lower in pIC50: 6.70 to 7.30 for the first, 5.00 to 6.70 for the second.

First: CCC(c1ccc(-c2ccc(C(=O)O)cc2)cn1)n1ccnc1 (centres unmarked) [Example 6, 4-(6-(1-(1H-imidazol-1-yl)propyl)pyridin-3-yl)benzoic acid]
Second: CCC(c1cnc(-c2ccc(OC)nc2)s1)n1ccnc1 (centres unmarked) [Example 51, 5-[5-(1-Imidazol-1-yl-propyl)-thiazol-2-yl]-2-methoxy-pyridine]
The pIC50 of the first is lower: 5.00 to 6.70 for the first, 6.70 to 7.30 for the second. The second is the more potent here.
